Results reported in US20250313560A1, “Novel bicyclic benzylamido pyridine derivatives as SOS1 inhibitors” (Boehringer Ingelheim International GmbH, priority 2024, published 2025).
Where two headings read alike, the source gives them in different places.

What was measured:
CYP3A4 = CYP3A4 (Homo sapiens (Human), UniProt P08684); assay: Mechanism-based inhibition of CYP3A4 assay (MBI 3A4); assay type: in vitro ADME; conditions: human liver microsomes, midazolam substrate, hydroxy-midazolam formation after 30 min preincubation relative to 0 min; for inhibition at 30 min: human, probe midazolam 15 μM (hydroxy-midazolam formation), read-out: MBI inhibition % ctrl. [%] with MDZ
CYP3A4, sequence (P08684 whole entry): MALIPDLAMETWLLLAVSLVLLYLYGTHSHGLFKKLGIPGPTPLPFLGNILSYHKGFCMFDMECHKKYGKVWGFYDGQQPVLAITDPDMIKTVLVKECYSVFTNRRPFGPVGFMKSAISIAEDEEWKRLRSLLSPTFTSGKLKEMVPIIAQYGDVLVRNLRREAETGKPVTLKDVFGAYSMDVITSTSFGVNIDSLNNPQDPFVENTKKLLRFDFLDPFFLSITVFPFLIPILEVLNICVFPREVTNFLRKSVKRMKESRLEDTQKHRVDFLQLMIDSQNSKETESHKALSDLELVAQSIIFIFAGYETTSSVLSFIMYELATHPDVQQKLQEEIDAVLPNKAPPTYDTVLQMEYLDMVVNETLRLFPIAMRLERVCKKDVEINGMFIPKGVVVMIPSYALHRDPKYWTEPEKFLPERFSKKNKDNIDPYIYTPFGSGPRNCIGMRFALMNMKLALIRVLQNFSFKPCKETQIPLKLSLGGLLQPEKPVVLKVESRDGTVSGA
Protocol: Mechanism-Based Inhibition of CYP3A4 assay (MBI 3A4): The mechanism-based inhibition towards CYP3A4 is assayed in human liver microsomes with midazolam as substrate. The test compounds and water control (wells w/o test compound) are preincubated in presence of NADPH (1 mM) with human liver microsomes (0.2 mg/mL) at a concentration of 0, 5 and 25 μM for 0, 10 and 30 min. After preincubation, the incubate is diluted 1:10 (to 0.02 mg/mL) and the substrate midazolam (15 μM) is added for the main incubation (10 min). The main incubation is quenched with ACN and the formation of hydroxy-midazolam is quantified via LC/MS-MS. The formation of hydroxy-midazolam from the 30 min preincubation relative to the formation from the 0 min preincubation is used as a readout. Values of less than 100% mean that the substrate midazolam is metabolized to a lower extent upon 30 min preincubation compared to 0 min preincubation. In general, low effects upon 30 min preincubation are desired (corresponding to values close to 100%/not different to the values determined with water control).
Table 5: Mechanism-based inhibition of P450 isoenzyme 3A4 with midazolam as substrate.

SOS1 and KRAS G12D = SOS1 and KRAS G12D (Homo sapiens (Human), UniProt Q07889); assay: KRAS::SOS1 AlphaScreen binding assay (KRAS G12D); conditions: average of at least two measurements
SOS1 and KRAS G12D, sequence (Q07889 564-1049, stated change not applied): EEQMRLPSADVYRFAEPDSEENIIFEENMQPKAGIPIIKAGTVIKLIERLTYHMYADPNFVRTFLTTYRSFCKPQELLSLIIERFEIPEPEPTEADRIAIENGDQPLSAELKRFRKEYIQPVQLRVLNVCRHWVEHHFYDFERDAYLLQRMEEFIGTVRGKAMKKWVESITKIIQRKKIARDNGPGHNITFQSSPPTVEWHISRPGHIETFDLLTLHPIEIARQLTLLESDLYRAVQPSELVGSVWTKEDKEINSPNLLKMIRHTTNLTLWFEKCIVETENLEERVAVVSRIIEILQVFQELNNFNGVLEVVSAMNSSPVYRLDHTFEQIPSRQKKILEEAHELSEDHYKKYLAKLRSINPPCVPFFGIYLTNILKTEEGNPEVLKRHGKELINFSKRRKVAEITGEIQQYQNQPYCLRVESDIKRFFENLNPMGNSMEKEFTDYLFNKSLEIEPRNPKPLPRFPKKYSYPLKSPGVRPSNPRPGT
Protocol: (§1) Low IC50 values are indicative of high potency of the SOS1 inhibitor compound in this assay setting:
(§2) • GST-tagged SOS1 (564_1049_GST_TEV_ECO) produced in-house • 6xHis-Tev-K-RasG12D/G12C(1-169)Avi produced in-house • GDP (Sigma Cat No G7127) • AlphaLISA Glutathione Acceptor Beads (PerkinElmer, Cat No AL109) • AlphaScreen Streptavidin Donor Beads (PerkinElmer Cat No 6760002) • Assay plates: Proxiplate-384 PLUS, white (PerkinElmer, Cat No 6008289)
(§3) [formula] • KRAS::SOS1 GDP mix: • 7.5 nM (final assay concentration) K-RasG12C, 10 nM (final assay concentration) K-RasG12D, 10 μM (final assay concentration) GDP and 5 nM (final assay concentration) GST-SOS1 are mixed in assay buffer prior to use and kept at rt. Bead mix: • AlphaLISA Glutathione Acceptor Beads and AlphaScreen Streptavidin Donor Beads are mixed in the dark in assay buffer at a concentration of 10 μg/mL (final assay concentration) each prior to use and kept at rt.
(§4) Compounds are diluted to a final start concentration of 100 μM and are tested in duplicate. Assay-ready plates (ARPs) are generated using an Access Labcyte Workstation with a Labcyte Echo 550 or 555 acoustic dispenser. For compound a start concentration of 100 μM, 150 nL of compound solution is transferred per well in 11 concentrations in duplicate with serial 1:5 dilutions.
(§5) The assay is run using a fully automated robotic system in a darkened room below 100 Lux. 10 μL of KRAS::SOS1 GDP mix is added into columns 1-24 to the 150 nL of compound solution (final dilution in the assay 1:100, final DMSO concentration 1%).
(§6) After a 30 minute incubation time, 5 μL of bead mix is added into columns 1-23. Plates are kept at rt in a darkened incubator. After a further 60 minutes incubation, the signal is measured using a PerkinElmer Envision HTS Multilabel Reader using the AlphaScreen specifications from PerkinElmer. Each plate contains the following controls:
(§7) diluted DMSO+KRAS::SOS1 GDP mix+bead mix
(§8) diluted DMSO+KRAS::SOS1 GDP mix
(§9) Result calculation: IC50 values are calculated and analyzed using a 4 parametric logistic model.
(§10) Table 1: Inhibition values for KRAS G12C as well as for KRAS G12D. […] The value indicates an average value of at least two measurements.

[1] = system: ERK phosphorylation in NCI-H358 SOS2 KO cells (KRAS G12C); assay: Erk phosphorylation assay; assay type: cell-based, human; conditions: EGF stimulated, average of at least two measurements, read-out: pERK IC50
Protocol: Low IC50 values are indicative of high potency of the SOS1 inhibitor compounds in this assay setting.
ERK phosphorylation assays are performed using the following human cell line: • NCI-H358 SOS2 KO (Hofmann, Gmachl, Ramharter et al, Cancer Discov. 2021, 11(1):142-15): human lung cancer with a KRAS G12C mutation;
NCI-H358 SOS2 KO are seeded at 50000 cells per well in 60 μL of DMEM with 2% FBS, in Greiner TC 384 plates. The cells are incubated overnight in an incubator at 37° C. and 5% CO2 in a humidified atmosphere. 60 nL compound solution (10 mM DMSO stock solution) is then added using a Beckman Coulter Labcyte Echo 550 device. After 50 min incubation in the aforementioned incubator, 5 nl EGF are added to each well for a final concentration of approx. 8 ng/mL using a Beckman Coulter Labcyte Echo 550 device and cells are incubated for another 10-15 minutes before lysis. The medium is removed, and the cells are lysed by addition of 20 μL of 1.6-fold lysis buffer from the AlphaLISA SureFire Ultra pERK1/2 (Thr202/Tyr204) Assay Kit with added protease inhibitors. After 20 minutes of incubation at rt with shaking, 6 μL of each lysate sample is transferred to a 384-well Proxiplate and analyzed for pERK (Thr202/Tyr204) with the AlphaLISA SureFire Ultra pERK1/2 (Thr202/Tyr204) Assay Kit. 3 μL Acceptor Mix and 3 μL Donor Mix are added under subdued light and incubated for 2 h at rt in the dark, before the signal is measured on a Perkin Elmer Envision plate reader using 384 AlphaScreen settings for Proxiplates. Data are fitted by iterative calculation with variable hill slope. The sigmoidal curve slope is fitted using a default fitting curve to ascertain IC50 values.
Table 2: Erk Phosphorylation assay. The value indicates an average value of at least two measurements.

human hepatocytes = assay: Metabolic stability in human hepatocytes; conditions: 1 μM test compound, 50% human serum, percentage of liver blood flow
P450 3A4 = P450 3A4 (Homo sapiens (Human), UniProt P08684); assay: Cytochrome P450 isoenzyme inhibition assay (P450 3A4, midazolam); assay type: in vitro ADME; conditions: human liver microsomes, Midazolam as substrate; read-out: CYP3A4 inhibition IC50
P450 3A4, sequence (P08684 whole entry): as the sequence (P08684 whole entry) above
Protocol: For the following cytochrome P450 isoenzymes, these substrates and metabolic reactions are monitored: P450 3A4: hydroxylation of Midazolam (MDZ).
The final incubation volume contains TRIS buffer (0.1 M), MgCl2 (5 mM), a certain concentration of human liver microsomes dependent on the P450 isoenzyme measured (P450 3A4: 0.1 mg/ml) and a certain concentration of the individual substrate for each isoenzyme (P450 3A4: Midazolam 5 μM).
The effect of the test compound is determined at five different concentrations in duplicate (e.g. highest concentration 50 μM with subsequent serial 1:4 dilutions) or without test compound (high control). Following a short preincubation period, reactions are started with the cofactor (NADPH, 1 mM) and stopped by cooling the incubation down to 8° C. and subsequently by addition of one volume of ACN. An internal standard solution—usually the stable isotope of the formed metabolite—is added after quenching of incubations. Peak area analyte (=metabolite formed) and internal standard is determined by LC-MS/MS. The resulting peak area ratio analyte to internal standard in these incubations is compared to a control activity containing no test compound. Within each of the assay runs, the IC50 of a positive control inhibitor dependent on the P450 isoenzyme measured (P450 3A4: ketoconazole) is determined. The assay results are plotted against compound concentrations to calculated IC50 values (half maximal inhibitory concentrations) for inhibitory compounds utilizing Software IDBS E-WorkBook.
Table 4: Inhibition of P450 isoenzyme 3A^4.

SOS1 and KRAS G12C = SOS1 and KRAS G12C (Homo sapiens (Human), UniProt Q07889); assay: KRAS::SOS1 AlphaScreen binding assay (KRAS G12C); conditions: average of at least two measurements
SOS1 and KRAS G12C, sequence (Q07889 564-1049, stated change not applied): as the sequence (Q07889 564-1049, stated change not applied) above
Protocol: as §1, §2, §3, §4, §5, §6, §7, §8, §9, §10

[2] = Homo sapiens, NCI-H358, NCI-H358 SOS2 KO cells

Row | Compound | inhibition at 30 min (CYP3A4) [%] | IC50 (SOS1 and KRAS G12D) [nM] | IC50 [1, 2] [nM] | Hepatic clearance - QH[%] in human hepatocytes (human hepatocytes) [%] | IC50 (P450 3A4) [nM] | IC50 (SOS1 and KRAS G12C) [nM] | MBI inhibition % ctrl. [%] with MDZ (CYP3A4) [%] | IC50 ([1]; NCI-H358 SOS2 KO cells) [nM]
1 | CO[C@@H]1CCN(C2CCN(c3cc(C(=O)N[C@H](C)c4cccc(C(F)(F)F)c4F)cn4cnnc34)CC2)C1 [Example E75] | 99 | 60 | 408 | 9 | > 50000 | 65 | – | –
2 | C[C@@H](NC(=O)c1cc(N2CCC(N3CC[C@@H](O)C3)CC2)c2ncnn2c1)c1cccc(C(F)F)c1F [Example E2] | 95 | 46 | 92 | 15 | > 50000 | 55 | – | –
3 | C[C@@H](NC(=O)c1cc(N2CCC(NC3COCC3O)CC2)c2ncnn2c1)c1cccc(C(F)F)c1F (single isomer, unassigned) [Example cis-E16a] | 92 | 41 | 320 | 32 | > 50000 | 45 | – | –
4 | C[C@@H](NC(=O)c1cc(N2CCC(N3CCCC(C)(O)C3)CC2)c2ncnn2c1)c1cccc(C(F)(F)F)c1F (single isomer, unassigned) [Example E47b] | – | 45 | – | 28 | > 50000 | 41 | 88 | 198
5 | C[C@@H](NC(=O)c1cc([C@H]2CC[C@H](N3CCC[C@@H](O)C3)CC2)c2ncnn2c1)c1cccc(C(F)(F)F)c1F [Example E68] | 91 | 27 | 116 | 12 | > 50000 | 36 | – | –
6 | C[C@@H](NC(=O)c1cc(N2CCC3(CCCCN3)CC2)c2ncnn2c1)c1cccc(C(F)(F)F)c1F [Example E45] | 97 | 30 | 139 | <4 | > 50000 | 33 | – | –
7 | C[C@@H](NC(=O)c1cc([C@H]2CC[C@H](N3CCC(F)C(O)C3)CC2)c2ncnn2c1)c1cccc(C(F)F)c1F (single isomer, unassigned) [Example trans-E61b] | – | 32 | – | 30 | > 50000 | 32 | 101 | 138
8 | C[C@@H](NC(=O)c1cc(N2CCC3(CCCN3C)CC2)c2ncnn2c1)c1cccc(C(F)(F)F)c1F [Example E37] | 90 | 21 | 152 | 25 | > 50000 | 31 | – | –
9 | C[C@@H](NC(=O)c1cc(N2CCC(NC3COCC3O)CC2)c2ncnn2c1)c1cccc(C(F)(F)F)c1F (single isomer, unassigned) [Example cis-E41b] | 95 | 38 | – | 26 | > 50000 | 41 | – | 367
10 | C[C@@H](NC(=O)c1cc(N2CCC(N3C[C@H](O)C4(CC4)C3)CC2)c2ncnn2c1)c1cccc(C(F)(F)F)c1F [Example E28] | 90 | 70 | 186 | 23 | > 50000 | 70 | – | –
11 | C[C@@H](NC(=O)c1cc(N2CCC3(CCCN3C)CC2)c2ncnn2c1)c1cccc(C(C)(F)F)c1F [Example E74] | 89 | 21 | 206 | 8 | > 50000 | 26 | – | –
12 | C[C@@H](NC(=O)c1cc(N2CCC(N(C)C)CC2)c2ncnn2c1)c1cccc(C(F)(F)F)c1F [Example E35] | 94 | 48 | 160 | 6 | > 50000 | 57 | – | –
13 | C[C@@H](NC(=O)c1cc(N2CCC(N3CCCC(O)CC3)CC2)c2ncnn2c1)c1cccc(C(F)F)c1F (single isomer, unassigned) [Example E17b] | 98 | 32 | – | 30 | > 50000 | 38 | – | 201
14 | Cc1nc2c([C@H]3CC[C@H](N4CCC[C@H](O)C4)CC3)cc(C(=O)N[C@H](C)c3cccc(C(F)F)c3F)cn2n1 [Example E85] | 102 | 24 | 158 | 14 | > 50000 | 37 | – | –
